From patent US11370774B2, “Substituted benzofuran, benzopyrrole, benzothiophene, and structurally related complement inhibitors” (BioCryst Pharmaceuticals, Inc., priority 2018, dated 2022) come the findings set out here.

Sequence of Factor D (P00746 26-253): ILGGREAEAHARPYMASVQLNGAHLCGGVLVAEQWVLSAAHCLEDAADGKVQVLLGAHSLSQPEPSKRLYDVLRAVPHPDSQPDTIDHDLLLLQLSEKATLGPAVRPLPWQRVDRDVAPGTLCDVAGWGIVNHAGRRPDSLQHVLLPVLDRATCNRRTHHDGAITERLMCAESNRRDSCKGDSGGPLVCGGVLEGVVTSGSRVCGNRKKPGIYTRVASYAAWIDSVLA

In this test the target is Factor D (Homo sapiens (Human), UniProt P00746). The experiment in a line: Factor D esterolytic assay (Z-Lys-SBzl substrate, DTNB, 405 nm). The format is biochemical. The following applies: Z-Lys-SBzl 1.29 mM, pH 7.5, 10% DMSO, tested a minimum of three times, read-out: Measured Ki (IC50) Value for Compounds: IC50. The essentials:
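Thioester hydrolysis (Z-Lys-SBzl, 1.29 mM) by human Factor D ([…]) detected through DTNB color at 405 nm over 600 sec, minus 690 nm background. Buffer: 100 mM HEPES pH 7.5, 500 mM NaCl, 10% DMSO; optional room-temperature preincubation before substrate. IC50 derived from percent rate inhibition; at least three runs.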
In general, IC50 refers to the concentration that gives 50% inhibition. In the case of `COc1c(C(=O)Nc2ccccc2CC(=O)O)cc(-c2ccnc(CN)c2F)c2occc12` [Compound 334d, 2-(2-(7-(2-(aminomethyl)-3-fluoropyridin-4-yl)-4-methoxybenzofuran-5-carboxamido)phenyl)acetic acid], the IC50 fell in the range of 1000 to 10000 nM.
The figure for `NCc1cc(-c2cc(COc3ccccc3CC(=O)O)cc3ccoc23)c2occc2c1` [Compound 335d, 2-(2-((5′-(aminomethyl)-[7,7′-bibenzofuran]-5-yl)methoxy)phenyl)acetic acid] is over 10000 nM; for `NCc1cc(-c2cc(COc3ccccc3CC(=O)O)cc3sc(Cl)cc23)ccn1` [Compound 336c, 2-(2-((4-(2-(aminomethyl)pyridin-4-yl)-2-chlorobenzo[b]thiophen-6-yl)methoxy)phenyl)acetic acid] it is under 1000 nM.
The same measure for `NCc1cccc(-c2cc(COc3ccccc3CC(=O)O)cc3sc(Cl)cc23)c1F` [Compound 337b, 2-(2-((4-(3-(aminomethyl)-2-fluorophenyl)-2-chlorobenzo[b]thiophen-6-yl)methoxy)phenyl)acetic acid]: under 1000 nM; for `NCc1nccc(-c2cc(COc3ccccc3CC(=O)O)cc3sc(Cl)cc23)c1F` [Compound 338c, 2-(2-((4-(2-(aminomethyl)-3-fluoropyridin-4-yl)-2-chlorobenzo[b]thiophen-6-yl)methoxy)phenyl)acetic acid]: under 1000 nM; for `NCc1cc(-c2cc(COc3ccccc3CC(=O)O)cc3ccoc23)cs1` [Compound 339c, 2-(2-((7-(5-(aminomethyl)thiophen-3-yl)benzofuran-5-yl)methoxy)phenyl)acetic acid]: under 1000 nM.
The figure for `Nc1c[nH]c2c(-c3cc(COc4ccccc4CC(=O)O)cc4ccoc34)cccc12` [Compound 341e, 2-(2-((7-(3-amino-1H-indol-7-yl)benzofuran-5-yl)methoxy)phenyl)acetic acid] is under 1000 nM; for `Cc1ccc(CC(=O)O)c(OCc2cc(-c3ccnc(CN)c3F)c3occc3c2F)c1` [Compound 342e, 2-(2-((7-(2-(aminomethyl)-3-fluoropyridin-4-yl)-4-fluorobenzofuran-5-yl)methoxy)-4-methylphenyl)acetic acid] it is under 1000 nM; for `Cc1ccc(CC(=O)O)c(OCc2cc(-c3ccnc(CN)c3F)c3occ(C(F)(F)F)c3c2)c1` [Compound 343e, 2-(2-((7-(2-(aminomethyl)-3-fluoropyridin-4-yl)-3-(trifluoromethyl)benzofuran-5-yl)methoxy)-4-methylphenyl)acetic acid] it is under 1000 nM.
With `COCCOCCOCCOCc1cc2cc(COc3ccccc3CC(=O)O)cc(-c3cccc(CN)c3)c2o1` [Compound 344f, 2-(2-((7-(3-(aminomethyl)phenyl)-2-(2,5,8,11-tetraoxadodecyl)benzofuran-5-yl)methoxy)phenyl)acetic acid], the IC50 is under 1000 nM.
In the case of `Cc1ccc(CC(=O)O)c(OCc2cc(-c3cccc(CN)c3)c3occ(C(F)(F)F)c3c2)c1` [Compound 345b, 2-(2-((7-(3-(aminomethyl)phenyl)-3-(trifluoromethyl)benzofuran-5-yl)methoxy)-4-methylphenyl)acetic acid], the concentration for half-maximal inhibition (IC50) was under 1000 nM.
Consider `Cc1ccc(CC(=O)O)c(OCc2cc(-c3ccnc(CN)c3)c3occc3c2F)c1` [Compound 346c, 2-(2-((7-(2-(aminomethyl)pyridin-4-yl)-4-fluorobenzofuran-5-yl)methoxy)-4-methylphenyl)acetic acid], for which the 50% inhibitory concentration (IC50) was under 1000 nM.
The same measure for `Cc1ccc(CC(=O)O)c(OCc2cc(-c3cccc(CN)c3)c3occc3c2F)c1` [Compound 347b, 2-(2-((7-(3-(aminomethyl)phenyl)-4-fluorobenzofuran-5-yl)methoxy)-4-methylphenyl)acetic acid]: under 1000 nM; for `Cc1ccc(CC(=O)O)c(OCc2cc(-c3cccc(CN)c3F)c3occc3c2F)c1` [Compound 348b, 2-(2-((7-(3-(aminomethyl)-2-fluorophenyl)-4-fluorobenzofuran-5-yl)methoxy)-4-methylphenyl)acetic acid]: under 1000 nM.
The same measure for `Cc1ccc(CC(=O)O)c(OCc2cc(-c3cccc(CN)c3F)c3occ(C(F)(F)F)c3c2)c1` [Compound 349b, 2-(2-((7-(3-(aminomethyl)-2-fluorophenyl)-3-(trifluoromethyl)benzofuran-5-yl)methoxy)-4-methylphenyl)acetic acid]: under 1000 nM.
For the compound `COc1ccc(OCc2cc(-c3cccc(CN)c3)c3occc3c2)c(CC(=O)O)c1` [Compound 350e, 2-(2-((7-(3-(aminomethyl)phenyl)benzofuran-5-yl)methoxy)-5-methoxyphenyl)acetic acid], the IC50 is under 1000 nM.
As to `NCc1cccc(-c2cc(COc3ccccc3CC(=O)O)cc3c2ccn3-c2ccccc2)c1` [Compound 351f, 2-(2-((4-(3-(aminomethyl)phenyl)-1-phenyl-1H-indol-6-yl)methoxy)phenyl)acetic acid], the IC50 was under 1000 nM.
The same measure for `Cc1ccc(CC(=O)O)c(OCc2cc(-c3cccc(CN)c3)c3ccn(C(C)C)c3c2)c1` [Compound 352c, 2-(2-((4-(3-(aminomethyl)phenyl)-1-isopropyl-1H-indol-6-yl)methoxy)-4-methylphenyl)acetic acid]: under 1000 nM; for `Cc1ccc(CC(=O)O)c(OCc2cc(-c3cccc(CN)c3F)c3ccn(C(C)C)c3c2)c1` [Compound 353b, 2-(2-((4-(3-(aminomethyl)-2-fluorophenyl)-1-isopropyl-1H-indol-6-yl)methoxy)-4-methylphenyl)acetic acid]: under 1000 nM.
The figure for `Cc1ccc(CC(=O)O)c(OCc2cc(-c3ccnc(CN)c3)c3ccn(C(C)C)c3c2)c1` [Compound 354c, 2-(2-((4-(2-(aminomethyl)pyridin-4-yl)-1-isopropyl-1H-indol-6-yl)methoxy)-4-methylphenyl)acetic acid] is under 1000 nM; for `Cc1ccc(CC(=O)O)c(OCc2cc(-c3ccnc(CN)c3F)c3ccn(C(C)C)c3c2)c1` [Compound 355c, 2-(2-((4-(2-(aminomethyl)-3-fluoropyridin-4-yl)-1-isopropyl-1H-indol-6-yl)methoxy)-4-methylphenyl)acetic acid] it is under 1000 nM; for `COc1ccc(CC(=O)O)c(OCc2cc(-c3cccc(CN)c3)c3ccn(C(C)C)c3c2)c1` [Compound 356c, 2-(2-((4-(3-(aminomethyl)phenyl)-1-isopropyl-1H-indol-6-yl)methoxy)-4-methoxyphenyl)acetic acid] it is under 1000 nM.
In the case of `COc1ccc(CC(=O)O)c(OCc2cc(-c3cccc(CN)c3F)c3ccn(C(C)C)c3c2)c1` [Compound 357b, 2-(2-((4-(3-(aminomethyl)-2-fluorophenyl)-1-isopropyl-1H-indol-6-yl)methoxy)-4-methoxyphenyl)acetic acid], the 50% inhibitory concentration (IC50) is under 1000 nM.
The same measure for `Cc1ccc(CC(=O)O)c(OCc2cc(-c3cccc(CN)c3)c3ccn(C)c3c2)c1` [Compound 358c, 2-(2-((4-(3-(aminomethyl)phenyl)-1-methyl-1H-indol-6-yl)methoxy)-4-methylphenyl)acetic acid]: under 1000 nM.
As to `Cc1ccc(CC(=O)O)c(OCc2cc(-c3cccc(CN)c3F)c3ccn(C)c3c2)c1` [Compound 359b, 2-(2-((4-(3-(aminomethyl)-2-fluorophenyl)-1-methyl-1H-indol-6-yl)methoxy)-4-methylphenyl)acetic acid], the IC50 was under 1000 nM.
Take `CC(=O)Nc1ccc(OCc2cc(-c3cccc(CN)c3)c3occc3c2)c(CC(=O)O)c1` [Compound 360c, 2-(5-acetamido-2-((7-(3-(aminomethyl)phenyl)benzofuran-5-yl)methoxy)phenyl)acetic acid]: the IC50 was under 1000 nM.
Take `NCc1cccc(-c2cc(COc3cc(CO)ccc3CC(=O)O)cc3ccoc23)c1` [Compound 361c, 2-(2-((7-(3-(aminomethyl)phenyl)benzofuran-5-yl)methoxy)-4-(hydroxymethyl)phenyl)acetic acid]: the half-inhibitory concentration (IC50) was under 1000 nM.
Regarding `NCc1cccc(-c2cc(COc3ccccc3CC(=O)O)cc3c2ccn3Cc2ccccc2)c1` [Compound 362e, 2-(2-((4-(3-(aminomethyl)phenyl)-1-benzyl-1H-indol-6-yl)methoxy)phenyl)acetic acid], the IC50 was under 1000 nM.
The same measure for `NCc1cccc(-c2cc(COc3cc(F)ccc3CC(=O)O)cc3ccoc23)c1F` [Compound 363b, 2-(2-((7-(3-(aminomethyl)-2-fluorophenyl)benzofuran-5-yl)methoxy)-4-fluorophenyl)acetic acid]: under 1000 nM.
The same measure for `NCc1nccc(-c2cc(COc3cc(F)ccc3CC(=O)O)cc3ccoc23)c1F` [Compound 364d, 2-(2-((7-(2-(aminomethyl)-3-fluoropyridin-4-yl)benzofuran-5-yl)methoxy)-4-fluorophenyl)acetic acid]: under 1000 nM.
Regarding `NCc1cc(-c2cc(COc3cc(F)ccc3CC(=O)O)cc3ccoc23)ccn1` [Compound 365f, 2-(2-((7-(2-(aminomethyl)pyridin-4-yl)benzofuran-5-yl)methoxy)-4-fluorophenyl)acetic acid], the 50% inhibitory concentration (IC50) is under 1000 nM.
Consider `Cc1ccc(CC(=O)O)c(OCc2cc(-c3ccnc(CN)c3F)c3ccn(C)c3c2)c1` [Compound 366d, 2-(2-((4-(2-(aminomethyl)-3-fluoropyridin-4-yl)-1-methyl-1H-indol-6-yl)methoxy)-4-methylphenyl)acetic acid], for which the IC50 is under 1000 nM.
The same measure for `Cc1ccc(CC(=O)O)c(OCc2cc(-c3ccnc(CN)c3)c3ccn(C)c3c2)c1` [Compound 367c, 2-(2-((4-(2-(aminomethyl)pyridin-4-yl)-1-methyl-1H-indol-6-yl)methoxy)-4-methylphenyl)acetic acid]: under 1000 nM; for `NCc1cccc(-c2cc(CC(=O)N3C[C@H](F)C[C@H]3C(=O)NCc3cccc(Cl)c3F)cc3ccoc23)c1` [Compound 368c, (2S,4R)-1-(2-(7-(3-(aminomethyl)phenyl)benzofuran-5-yl)acetyl)-N-(3-chloro-2-fluorobenzyl)-4-fluoropyrrolidine-2-carboxamide]: under 1000 nM.
